# Laboratory results taken from patent publication US20220289698A1, “INHIBITORS OF HUMAN ATGL” (Karl-Franzens-Universität Graz, priority 2019, published 2022).
# Read-outs that look alike come from different tables or passages of the source.
# Key:
# human ATGL = biological target: T1, human ATGL (Homo sapiens, UniProt Q96AD5); test: Ki determination, human ATGL lysates with increasing substrate concentrations; type: biochemical; conditions: non-linear regression
# T1 construct: made in house; host or cells: Expi cells (lysate, not purified)
# T1 sequence (Q96AD5 1-504): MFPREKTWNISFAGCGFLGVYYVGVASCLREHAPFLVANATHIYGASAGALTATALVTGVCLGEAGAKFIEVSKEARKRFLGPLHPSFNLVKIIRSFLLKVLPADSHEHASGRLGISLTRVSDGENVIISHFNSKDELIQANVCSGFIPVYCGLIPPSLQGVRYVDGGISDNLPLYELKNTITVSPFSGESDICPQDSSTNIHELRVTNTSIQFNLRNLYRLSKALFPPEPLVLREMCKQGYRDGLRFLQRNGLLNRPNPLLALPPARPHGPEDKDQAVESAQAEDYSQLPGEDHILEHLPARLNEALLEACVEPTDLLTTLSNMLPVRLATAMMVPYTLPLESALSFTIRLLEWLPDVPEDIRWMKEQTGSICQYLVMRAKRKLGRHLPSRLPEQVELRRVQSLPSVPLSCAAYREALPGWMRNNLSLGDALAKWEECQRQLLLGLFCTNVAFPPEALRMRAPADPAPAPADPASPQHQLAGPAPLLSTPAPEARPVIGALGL
# Description: For determination of Ki values, lysates from Expi cells overexpressing human ATGL were incubated with recombinant purified ATGL co-activator CGI-58 and ATGL inhibitors at a single concentration dependent on the previously determined IC50. Increasing concentrations of substrate containing radiolabeled triolein were added and liberated FA were extracted and quantified by liquid scintillation. Inhibitors were dissolved in DMSO which was used as control. Ki was determined via non-linear regression analysis. Samples were measured in triplicates.
# HepG2 cells = test: Toxicity screening (LDH) in HepG2 cells; type: cell-based, human; conditions: 24 h treatment, LDH release
# Description: (§1) HepG2 cells were seeded in 96 well plates and at 50% confluency treated with DMSO (0.5% final conc.) or ATGL Inhibitors for 24 h in DMEM+P/S+3% heat inactivated FCS (3 h at 62° C.). Subsequently, LDH activity of 50 μl medium was determined via the Roche LDH Kit. Samples measured in triplicates.
# AML-12 cells = test: Toxicity screening (LDH) in AML-12 cells; type: cell-based, mouse; conditions: 24 h treatment, LDH release
# Description: as §1, with “AML-12” for “HepG2”, “80%” for “50%”, “Subsequently, medium was centrifuged at 300 g for 3 min, and” for “Subsequently,”, “supernatant” for “medium”
# [1] = system: differentiated 3T3-L1 adipocytes; test: Isoproterenol-stimulated lipolysis in differentiated 3T3-L1 adipocytes; type: cell-based; conditions: Mus musculus, 2 h pretreatment
# Description: Mouse differentiated 3T3-L1 adipocytes were pretreated with DMSO or ATGL inhibitors for 2 h. Subsequently, lipolysis was stimulated with 1 μM Isoproterenol for 1 h and fatty acid release was determined from media via NEFA Reagent (Wako Diagnostics). Samples were measured in triplicates.
# Mouse differentiated 3T3-L1 adipocytes were pretreated with DMSO or ATGL inhibitors for 2 h. Subsequently, lipolysis was stimulated with 1 μM Isoproterenol for […] and glycerol release was determined from media via Free glycerol reagent (Sigma Aldrich). Samples were measured in triplicates.
# [2] = system: differentiated hMADS adipocytes; test: Isoproterenol-stimulated lipolysis in differentiated hMADS adipocytes; type: cell-based; conditions: Homo sapiens, Adipocyte, 2 h pretreatment, 1 μM isoproterenol 1 h
# Description: Human differentiated hMADS adipocytes were pretreated with DMSO or ATGL inhibitors for 2 h. Subsequently, lipolysis was stimulated with 1 μM Isoproterenol for 1 h and fatty acid release was determined from media via NEFA Reagent (Wako Diagnostics). Samples were measured in triplicates.
# Human differentiated hMADS adipocytes were pretreated with DMSO or ATGL inhibitors for 2 h. Subsequently, lipolysis was stimulated with 1 μM Isoproterenol for 1 h and glycerol release was determined from media via Free glycerol reagent (Sigma Aldrich). Samples were measured in triplicates.
# [3] = 1 μM isoproterenol 1 h, fatty acid release, read-out: IC50 3T3 FA release
# [4] = 1 μM isoproterenol, glycerol release, read-out: IC50 3T3 glycerol release
SMILES,melting point,Tox AML-12 (LDH) seen from (AML-12 cells),"IC50 [1, 3]","IC50 [1, 4]",other results
CCOc1ccc(-c2cc(OC)cc(C(=O)OC(C)C)n2)cc1 [Example 35],79 to 81 °C,–,–,–,Ki (human ATGL): 0.5 µM
"CC#CCOC(=O)c1csc(-c2ccc(OCC)cc2)n1 [Example 209, But-2-yn-1-yl 2-(4-ethoxyphenyl)thiazole-4-carboxylate]",–,100 µM,–,–,Tox HepG2 (LDH) seen from (HepG2 cells): 200 µM
"C#C[C@H](C)OC(=O)c1csc(-c2ccc(OCC)cc2)n1 [Example 210, (S)-But-3-yn-2-yl 2-(4-ethoxyphenyl)thiazole-4-carboxylate]",–,200 µM,–,–,–
"CCOc1ccc(-c2cccc(C(=O)OCc3ccco3)n2)cc1 [Example 190, Furan-2-ylmethyl 6-(4-ethoxyphenyl)picolinate]",76 to 80 °C,200 µM,6 µM,25 µM,–
"COc1cc(C(=O)OC(C)C)nc(-c2ccc(OC(C)C)cc2)c1 [Example 201, Isopropyl 6-(4-isopropoxyphenyl)-4-methoxypicolinate]",70 to 71 °C,200 µM,–,–,–
"C#C[C@@H](C)OC(=O)c1csc(-c2ccc(OCC)cc2)n1 [Example 211, (R)-But-3-yn-2-yl 2-(4-ethoxyphenyl)thiazole-4-carboxylate]",–,100 µM,4 µM,20 µM,–
"CCOc1ccc(-c2cccc(C(=O)OCc3cccs3)n2)cc1 [Example 189, Thiophen-2-ylmethyl 6-(4-ethoxyphenyl)picolinate]",93 to 94 °C,200 µM,–,–,–
"CCCCOC(=O)c1csc(-c2ccc(OCC)cc2)n1 [Example 212, Butyl 2-(4-ethoxyphenyl)thiazole-4-carboxylate]",–,200 µM,–,–,–
"CCOc1ccc(-c2nc(C(=O)OCc3ccsc3)cs2)cc1 [Example 215, Thiophen-3-ylmethyl 2-(4-ethoxyphenyl)thiazole-4-carboxylate]",–,–,6 µM,15 µM,–
"CCOc1ccc(-c2nc(C(=O)OCc3cccs3)cs2)cc1 [Example 152, Thiophen-2-ylmethyl 2-(4-ethoxyphenyl)thiazole-4-carboxylate]",–,–,–,–,"Ki (human ATGL): 8.2 µM; IC50 ([2]; fatty acid release, read-out: IC50 hMADS FA release): 12 µM; IC50 ([2]; glycerol release, read-out: IC50 hMADS glycerol release): 10 µM; Tox HepG2 (LDH) seen from (HepG2 cells): 200 µM"
"CCOc1ccc(-c2nc(C(=O)OCc3ccoc3)cs2)cc1 [Example 216, Furan-3-ylmethyl 2-(4-ethoxyphenyl)thiazole-4-carboxylate]",–,50 µM,10 µM,25 µM,–
